Reference: the supplement of paper PMC10307832

Columns and labels:
Test in all cases: relative viability (nuclei count vs DMSO), 5 days (fraction); higher = more cells survive
[1] = compound: C1CCC(CC1)N(CCNCCC2=C3C(=C(C=C2)O)NC(=O)CO3)C(=O)CCNCCC4=CC(=C(C=C4)Cl)Cl [AZ505] + C[C@@H](Oc1cc(-c2cnn(C3CCNCC3)c2)cnc1N)c1c(Cl)ccc(F)c1Cl [Crizotinib] (partner 1 µM)
Method in brief: (§1)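 Relative viability equals treated-well nuclei counts divided by vehicle-well nuclei counts. Counts came from 4× images of lung cancer cell lines grown in 1536-well plates for 5 days after pin-tool dosing on the day after seeding. Dosing used one drug alone or a fixed anchor-drug dose plus five library-drug doses (not always all listed) in √10 steps, and values are medians of duplicate plates.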

[2] = compound: C1CCC(CC1)N(CCNCCC2=C3C(=C(C=C2)O)NC(=O)CO3)C(=O)CCNCCC4=CC(=C(C=C4)Cl)Cl [AZ505] + Nc1ncn([C@H]2C[C@H](O)[C@@H](CO)O2)c(=O)n1 [Decitabine] (partner 2 µM)
Method in brief: as §1

[3] = compound: Cn1c(=O)n(-c2ccc(C(C)(C)C#N)cc2)c2c3cc(-c4cnc5ccccc5c4)ccc3ncc21 [Dactolisib] + Cc1cc(Nc2cc(N3CCN(C)CC3)nc(Sc3ccc(NC(=O)C4CC4)cc3)n2)n[nH]1 [Tozasertib] (partner 0.1 µM)
Method in brief: as §1

[4] = compound: Cn1c(=O)n(-c2ccc(C(C)(C)C#N)cc2)c2c3cc(-c4cnc5ccccc5c4)ccc3ncc21 [Dactolisib] + O=C(CCCCCCC(=O)Nc1ccccc1)NO [Vorinostat] (partner 1 µM)
Method in brief: as §1

Cell Line	relative viability ([1]; first compound 0.08 µM)	relative viability ([1]; first compound 0.253 µM)	relative viability ([1]; first compound 0.8 µM)	relative viability ([1]; first compound 2.53 µM)	relative viability ([1]; first compound 8 µM)	relative viability ([2]; first compound 0.08 µM)	relative viability ([2]; first compound 0.253 µM)	relative viability ([2]; first compound 0.8 µM)	relative viability ([2]; first compound 2.53 µM)	relative viability ([2]; first compound 8 µM)	relative viability ([3]; first compound 0.002 µM)	relative viability ([3]; first compound 0.006325 µM)	relative viability ([3]; first compound 0.02 µM)	relative viability ([3]; first compound 0.06325 µM)	relative viability ([3]; first compound 0.2 µM)	relative viability ([4]; first compound 0.002 µM)	relative viability ([4]; first compound 0.006325 µM)	relative viability ([4]; first compound 0.02 µM)	relative viability ([4]; first compound 0.06325 µM)	relative viability ([4]; first compound 0.2 µM)
NCI-H1437	0.801	0.852	0.863	0.927	0.895	0.574	0.571	0.62	0.625	0.555	0.467	0.425	0.415	0.518	0.382	0.865	0.836	0.802	0.68	0.552
COR-L23	0.42	0.621	0.518	0.567	0.385	0.378	0.449	0.381	0.458	0.443	0.273	0.243	0.257	0.149	0.147	0.367	0.363	0.277	0.157	0.161
ABC-1	1.01	1.12	1.19	1.21	1.24	1.07		1.11	0.938	1.04	0.188	0.176	0.165	0.166	0.19	1.19	1.34	0.94	0.824	0.529
NCI-H522						0.602	0.689	0.657	0.599	0.634	0.625	0.575	0.542	0.521	0.385	0.861	0.833	0.79	0.822	0.657
NCI-H838	0.773	0.841	0.809	0.824	0.743	0.444	0.475	0.461	0.469	0.506	0.249	0.295	0.254	0.208	0.199	0.746	0.575	0.497	0.36	0.306
SW 900						0.537	0.545	0.419	0.462	0.489	0.633	0.669	0.511	0.426	0.36	0.478	0.443	0.434	0.216	0.24
A549	0.661	0.849	0.692	0.776	0.608		0.264	0.295	0.22	0.284										
A-427	0.771	0.829	0.766	0.837	0.944	0.58	0.551	0.488	0.525	0.574	0.201	0.192	0.253	0.208	0.187	0.894	0.864	0.834	0.706	0.647
NCI-H1792	0.734	1.08	0.935	0.928	1.11	0.494	0.481	0.602	0.51	0.604										
LCLC-97TM1	0.503	0.479	0.478	0.709	0.413	0.195	0.253	0.244		0.228	0.189	0.15	0.151	0.171	0.111	0.615	0.655	0.612	0.251	0.311
NCI-H1703	0.532	0.716	0.58	0.58	0.917															
LCLC-103H	0.868	1.03	0.987	1.01	0.969	0.73	0.674	0.707	0.751	0.702	0.492	0.481	0.451	0.379	0.286	0.82	0.863	0.719	0.443	0.412
PC-3 [JPC-3]	0.885	0.979	0.916	0.94	1.03	0.849		0.861	0.79	0.79	0.967	0.896	0.803	0.831	0.608	0.968	0.843	0.748	0.782	0.426
Calu-6	0.735	0.806	0.785	0.589	0.748															
NCI-H1648							0.508	0.538	0.615	0.522	0.407	0.433	0.446	0.24	0.218	0.506	0.421	0.654	0.435	0.203
EBC-1	0.21	0.198	0.178	0.203	0.184															
NCI-H1299	0.959	1.06	0.969	0.926	0.988															
NCI-H2228	0.373	0.518	0.369	0.467	0.342						0.256	0.294	0.191	0.112	0.0991	0.652	0.682	0.429	0.327	0.164
NCI-H2342						0.792	0.759	0.728	0.734	0.841	0.475	0.496	0.435	0.502	0.362	0.656	0.832	0.698	0.75	0.568
IA-LM	0.695	0.769	0.861	0.75	1.07											1	0.903	0.817	0.426	0.267
NCI-H1793						0.588	0.506	0.454	0.544	0.549	0.329	0.242	0.199	0.126	0.106	0.794	0.358	0.293	0.205	0.197
CAL-12T	0.599	0.753	0.535	0.684	0.563						0.288	0.296	0.241	0.163	0.121	0.798	0.913	0.722	0.209	0.199
